Experiments:
[1] = Clarity of mixtures of resorcinol/phenol analogues with water; type: physicochemical; conditions: separately mixed with water at 50% and 75% concentrations
Text: 4-Octylresorcinol and 3-methoxyphenol (from Sigma-Aldrich of St. Louis, Mo.) were separately mixed with water at 50% and 75% concentrations.

[2] = cited from earlier work

Row | Clarity / appearance of mixtures with water [1] | Structure (SMILES) | Water solubility (prior art characterization) [2]
1 | None of the mixtures were clear | CCCCCCCCc1ccc(O)cc1O [4-Octylresorcinol] | –
2 | – | CCCCCCc1ccc(O)cc1O [Example 4-HR, 4-Hexylresorcinol] | water-insoluble
3 | None of the mixtures were clear | COc1cccc(O)c1 [3-methoxyphenol] | –

Source: US9370474B2, “High-clarity aqueous concentrates of 4-hexylresorcinol” (JOHNSON & JOHNSON CONSUMER INC., priority 2009, dated 2016)
